According to patent US9066516B2, “Uses of thaxtomin and thaxtomin compositions as herbicides” (priority 2008, dated 2015):
Where two headings read alike, the source gives them in different places.

Legend:
[1] = system: crabgrass; experiment: Greenhouse synergy test MBI-005 + field crop herbicides (Example 11); type: in vivo; conditions: 14 days
Protocol: (§1) […] other herbicides commonly used for field crops, glyphosate, glufosinate, synthetic version of bialaphos, and mesotrione were also tested for synergy with MBI-005 on crabgrass and ragweed.
(§2) There were 3 replicates per treatment which were sprayed with approximately ⅔ ml per replicate. The treatments were completely randomized and kept in a greenhouse at 25° C. The efficacy was rated at 7 and 14 days post treatment.

[2] = system: ragweed; experiment: Greenhouse synergy test MBI-005 + commercial herbicides (Example 11); type: in vivo; conditions: 14 days
Protocol: (§3) The test species barnyard grass, ragweed, sedge, and broad-leaf mustard were used for the valuation of synergy between MBI-005 and the rice herbicides clomazone, penoxsulam, cyhalofop, fenoxaprop-p-ethyl, bispyribac-sodium, thiobencarb, and propanil.
as §1, §2

[3] = system: broad-leaf mustard; experiment: as above; type: in vivo; conditions: 14 days
Protocol: as §3, §2

[4] = system: barnyard grass; experiment: as above; type: in vivo; conditions: 14 days
Protocol: as §3, §2

[5] = system: small flower umbrella sedge; experiment: Post-emergent MBI-005 + rice herbicides on smallflower umbrella sedge (Example 19); type: in vivo; conditions: 14 days
Protocol: (§4) Twenty seedlings in 2.5 cm square pots containing plant growth mix were sprayed to full coverage using a hand sprayer. Negative controls were sprayed with water. Pots were randomly placed in a growth room at 25° C. and 50% RH, and watered as necessary. Treatments were replicated three times and evaluated at 7 and 14 days for visual % damage, with 0% indicating no damage and 100% indicating plant death.
(§5) Synergy was calculated as the ratio of observed (E) to expected (E/Ee) percent control using Colby's formula.

[6] = system: watergrass; experiment: Field study, 1-sq foot plots (Example 5); type: in vivo; conditions: 14 days after treatment
Protocol: (§6) The combined effect of thaxtomin A and two commercial herbicides (Bipyribac-sodium formulated as Regiment and Lemongrass oil formulated as GreenMatch EX) on small-flower umbrella sedge and watergrass is tested in a field study using small (1-sq foot) plots. All single product treatments and tank mix combinations were sprayed at 57 gal per acre. Means in each column marked with the same letter in Table 2 are not statistically different from each other at p<0.05

[7] = system: small-flower umbrella sedge; experiment: Field study, 1-sq foot plots (Example 5); type: in vivo; conditions: 14 days after treatment
Protocol: as §6

[8] = system: barnyard grass; experiment: Post-emergent MBI-005 + rice herbicides on barnyard grass (Example 18); type: in vivo; conditions: 14 days
Protocol: as §4, with “Ten” for “Twenty”
Synergistic effect were noted between MBI-005 and all three rice herbicides, 14 days after treatment. Synergy was calculated as the ratio of observed (E) to expected (E/Ee) percent control using Colby's formula.

[9] = system: sedge; experiment: Greenhouse synergy test MBI-005 + commercial herbicides (Example 11); type: in vivo; conditions: 14 days
Protocol: as §3, §2

[10] = system: dandelion; experiment: Greenhouse synergy test MBI-005 + turf herbicides (Example 11); type: in vivo; conditions: 14 days
Protocol: (§7) The common turf weeds dandelion and plantain were used in testing for synergy between MBI-005 and 2, 4- or dicamba, two common turf herbicides.
as §2

[11] = system: plantain; experiment: as above; type: in vivo; conditions: 14 days
Protocol: as §7, §2

[12] = system: Smallflower umbrella sedge; experiment: Post-emergent MBI-005 + Thiobencarb on Smallflower umbrella sedge (Example 21); type: in vivo; conditions: post-emergence, 336 h, 14 days, read-out: Observed Average % Efficacy (E)
Protocol: […] Negative controls were sprayed with water. Pots were randomly placed in a growth room at 25° C. and 50% RH, and watered as necessary. Treatments were replicated three times and evaluated at 7 and 14 days for visual % damage, with 0% indicating no damage and 100% indicating plant death.
as §5

[13] = in vivo; cited from earlier work
[14] = system: crabgrass; experiment: Crabgrass seed germination, MBI-005 + m-Tyrosine (Example 15); type: in vivo; conditions: 7 DAT; for AVG No. germinated: forty-five seeds
Protocol: Forty-five seeds were placed on a ring of blotter paper inside a 3 cm petri dish, covered with 10 cm^3 of inert baked clay particle media and supplied with 7 ml of 0.035 mg/ml MBI-005, a m-Tyrosine concentration, or a combination of MBI-005 and m-Tyrosine (Table 14). Water was used as a negative control. Petri dishes were randomly placed in a growth room at 25° C. and 50% RH. Treatments were replicated three times and germinated seeds were counted 7 days after application; water was added as necessary to maintain moisture levels inside each petri dish.
Synergy was calculated as the ratio of observed (E) to expected (E/Ee) reduction in germination using Colby's formula.

[15] = system: barnyard grass; experiment: Post-emergent MBI-005 + Propanil on barnyard grass (Example 20); type: in vivo; conditions: Echinochloa crus-galli, post-emergence, 336 h; 25% Propanil (of label rate); 14 days; read-out: Observed Average % Efficacy (E)
Protocol: Negative controls were sprayed with water. Pots were randomly placed in a growth room at 25° C. and 50% RH, and watered as necessary. Treatments were replicated three times and evaluated at 7 and 14 days for visual % damage, with 0% indicating no damage and 100% indicating plant death.
as §5

[16] = system: barnyard grass; experiment: Greenhouse spray test bialaphos + MBI-005 (Example 10); type: in vivo
Protocol: The MBI-005 and bialaphos were prepared at various concentrations either as single ingredients or in combination with bialaphos. The treatments were applied at approximately ⅔ ml per replicate with a hand-help spray nozzle to barnyard grass or sedge. There were 3 replicates per treatment which were randomized after spray and were kept in a greenhouse at 25° C. for evaluation of phytotoxicity (% control).

[17] = system: crabgrass; experiment: Post-emergent MBI-005 + Atrazine on crabgrass (Example 17); type: in vivo; conditions: 35% Atrazine Label Rate
Protocol: as §4, with “Ten” for “Twenty”, “with two suboptimal rates of MBI-005, and 35% of the atrazine label rate (0.3 gallons/A), or a combination thereof, at a volume of 40 gal/A” for “to full coverage”, “cabinet track” for “hand”, “five” for “three”
as §5

[18] = system: sprangletop: Leptochloa uninervia; experiment: Greenhouse study thaxtomin A / sarmentine (Example 9); type: in vivo; conditions: 25 days after treatment
Protocol: (§8) A strain of S. acidiscabies was grown in oat bran broth for 5 days (25° C., 200 rpm). The whole cell broth was extracted using XAD resin, and the dried crude extract was resuspended in 4% ethanol and 0.2% non-ionic surfactant at a concentration of 10 mg/mL. The diluted extracts containing 0.2 and 0.4 mg thaxtomin A per mL were tested on three weed species (redstem; Ammania spp., smallflower umbrella sedge; Cyperus difformis and sprangletop: Leptochloa uninervia). Other treatments included sarmentine at 2.5 and 5.0 mg/mL, and a combination treatment containing 0.2 mg thaxtomin A and 2.5 mg sarmentine per mL. Each treatment was applied in three replicates. Treated plants were kept in a greenhouse under 12 h light/12 h dark conditions.

[19] = system: smallflower umbrella sedge; Cyperus difformis; experiment: as above; type: in vivo; conditions: 25 days after treatment
Protocol: as §8

[20] = system: redstem; Ammania spp.; experiment: as above; type: in vivo; conditions: 25 days after treatment
Protocol: as §8

[21] = Bispyribac-sodium 13.3% v/v of label rate

Compound: CS(=O)(=O)c1ccc(C(=O)C2C(=O)CCCC2=O)c([N+](=O)[O-])c1 [mesotrione]
- % Control Product ([1]; mesotrione 0.24 mg/mL): 62.5%
- % Control Product ([2]; mesotrione 0.96 mg/mL): 25.0%

Compound: COc1cc(OC)nc(Oc2cccc(Oc3nc(OC)cc(OC)n3)c2C(=O)O)n1 [Bispyribac-sodium]
- % Control Product ([3]; bispyribac-sodium 0.0216 mg/mL): 53.3%
- % Control Product ([4]; bispyribac-sodium 0.032 mg/mL): 0.0%
- % control AI [5, 21]: 37.5%
- Watergrass control (%) ([6]; Bispyribac-sodium 12 g/acre): 32.5a %
- Watergrass control (%) ([6]; Bispyribac-sodium ½ (6 g/acre)): 15c %
- Sedge control (%) ([7]; Bispyribac-sodium 12 g/acre): 87.5a %
- Sedge control (%) ([7]; Bispyribac-sodium ½ (6 g/acre)): 47.5c %
- % control chemical AI [8, 21]: 6.7%
- % Control Product ([2]; bispyribac-sodium 0.0216 mg/mL): 5.0%

Compound: O=C(O)CNCP(=O)(O)O [glyphosate]
- % Control Product ([1]; glyphosate 0.754 mg/mL): 45.8%
- % Control Product ([2]; glyphosate 2.198 mg/mL): 15.0%

Compound: CC1(C)CON(Cc2ccccc2Cl)C1=O [clomazone]
- % Control Product ([3]; clomazone 0.513 mg/mL): 25.0%
- % Control Product ([4]; clomazone 0.513 mg/mL): 37.5%
- % Control Product ([9]; clomazone 0.501 mg/mL): 0.0%
- % control AI ([5]; Clomazone 13% v/v of label rate): 0.0%
- % control chemical AI ([8]; Clomazone 13.3 % v/v of label rate): 37.50%

Compound: COc1c(Cl)ccc(Cl)c1C(=O)O [dicamba, reference compound]
- % Control Product ([10]; dicamba 0.121 mg/mL): 45.8%
- % Control Product ([11]; dicamba 6.025 mg/mL): 50.0%

Compound: CCOC(=O)[C@@H](C)Oc1ccc(Oc2nc3ccc(Cl)cc3o2)cc1 [fenoxaprop-p-ethyl]
- % Control Product ([3]; fenoxaprop-p-ethyl 0.006 mg/mL): 0.0%
- % Control Product ([4]; fenoxaprop-p-ethyl 0.006 mg/mL): 91.7%
- % Control Product ([9]; fenoxaprop-p-ethyl 0.116 mg/mL): 0.0%

Compound: CCN(CC)C(=O)SCc1ccc(Cl)cc1 [thiobencarb]
- % Control Product ([3]; thiobencarb 1.743 mg/mL): 10.0%
- % Control Product ([4]; thiobencarb 1.743 mg/mL): 41.7%
- % Control Product ([9]; thiobencarb 3.15 mg/mL): 58.3%
- % control AI ([5]; Thiobencarb 25% v/v of label rate): 41.7%
- Observed average % efficacy ([12]; first series, 25% Thiobencarb): 41.7%
- Observed average % efficacy ([12]; second series, 15% Thiobencarb): 25%

Compound: CN1C(=O)[C@H](Cc2c[nH]c3cccc([N+](=O)[O-])c23)N(C)C(=O)[C@@H]1Cc1ccccc1 [thaxtomin D, reference compound]
- activity as pre and post emergent, non-systemic herbicides [13]: marked activity

Compound: N[C@@H](Cc1cccc(O)c1)C(=O)O [M-tyrosine, m-Tyrosine]
- E (% controlled compared to UTC) ([14]; .22 mg/mL M-tyrosine): 8.3%
- AVG No. germinated ([14]; .22 mg/mL M-tyrosine): 40.7
- E (% controlled compared to UTC) ([14]; .44 mg/mL M-tyrosine): 0.8%
- AVG No. germinated ([14]; .44 mg/mL M-tyrosine): 44.0

Compound: CCC(=O)Nc1ccc(Cl)c(Cl)c1 [propanil]
- % Control Product ([3]; propanil 0.036 mg/mL): 1.67%
- % Control Product ([4]; propanil 0.365 mg/mL): 32.5%
- % control AI ([5]; Propanil .5% v/v of label rate): 62.5%
- Observed average % efficacy (visual damage) [15]: 32.5%

Compound: O=C(O)COc1ccc(Cl)cc1Cl [2,4-D, reference compound]
- % Control Product ([10]; 2, 4-D 0.176 mg/mL): 25.0%
- % Control Product ([11]; 2, 4-D 2.340 mg/mL): 50.0%

Compound: C[C@H](NC(=O)[C@H](C)NC(=O)[C@@H](N)CCP(C)(=O)O)C(=O)O [Bialaphos]
- % Control (14 days) ([16]; Table 6, Bialaphos 0.089 mg/mL): 0.0 a %
- % Control (14 days) ([16]; Table 6, Bialaphos 0.178 mg/mL): 0.0 a %
- % Control (14 days) ([16]; Table 6, Bialaphos 0.356 mg/mL): 0.0 a %
- % Control (14 days) ([16]; Table 6, Bialaphos 0.534 mg/mL): 0.0 a %
- % Control (14 days) ([16]; Table 6, Bialaphos 0.712 mg/mL): 0.0 a %
- % Control (14 days) ([16]; Table 6, Bialaphos 0.890 mg/mL): 1.3 ab %
- % Control (14 days) ([16]; Table 6, Bialaphos 1.068 mg/mL): 5.0 abc %
- % Control (14 days) ([16]; Table 7, Bialaphos 0.18 mg/mL): 6.7 bc %
- % Control (14 days) ([16]; Table 7, Bialaphos 0.53 mg/mL): 3.3 ab %
- % Control (14 days) ([16]; Table 7, Bialaphos 1.07 mg/mL): 10.0 c %
- % Control (14 days) ([16]; Table 7, Bialaphos 1.07 mg/mL, listed as bialaphos): 10%
- % Control (7 days) ([16]; Table 8, Bialaphos 1.1 mg/mL): 5.0 ab %
- % Control (14 days) ([16]; Table 8, Bialaphos 1.1 mg/mL): 3.7 a %
- % Control (7 days) ([16]; Table 8, Bialaphos 1.4 mg/mL): 10.8 b %
- % Control (14 days) ([16]; Table 8, Bialaphos 1.4 mg/mL): 23.3 b %
- % Control (7 days) ([16]; Table 8, Bialaphos 1.8 mg/mL): 62.5 c %
- % Control (14 days) ([16]; Table 8, Bialaphos 1.8 mg/mL): 66.7 c %

Compound: CCNc1nc(Cl)nc(NC(C)C)n1 [Atrazine, reference compound]
- AVG E (visual % damage) ([17]; 7DAT): 11.9%
- AVG/ E (visual % damage) ([17]; 14DAT): 8.8%

Compound: CCCCC/C=C/C=C/C(=O)N1CCCC1 [Sarmentine]
- Control of sprangletop (%) ([18]; Sarmentine 2.5 mg/mL): 80.0c %
- Control of sprangletop (%) ([18]; Sarmentine 5.0 mg/mL): 92.3d %
- Control of sedge (%) ([19]; Sarmentine 2.5 mg/mL): 8.3a %
- Control of sedge (%) ([19]; Sarmentine 5.0 mg/mL): 6.7a %
- Control of redstem (%) ([20]; Sarmentine 2.5 mg/mL): 0a %
- Control of redstem (%) ([20]; Sarmentine 5.0 mg/mL): 2.5ab %

Compound: CP(=O)(O)CCC(N)C(=O)O (centres unmarked) [glufosinate]
- % Control Product ([1]; glufosinate 0.151 mg/mL): 83.3%
- % Control Product ([2]; glufosinate 0.194 mg/mL): 22.5%

Compound: COc1cnc(OC)n2nc(NS(=O)(=O)c3c(OCC(F)F)cccc3C(F)(F)F)nc12 [penoxsulam]
- % Control Product ([4]; penoxsulam 0.051 mg/mL): 25.0%
- % Control Product ([9]; penoxsulam 0.047 mg/mL): 66.7%
- % control AI ([5]; Penoxsulam 13% v/v of label rate): 33.3%
- % control chemical AI ([8]; Penoxsulam 13.0 % v/v of label rate): 25.0%
